Literature values as cited in US7585520B2, “Compositions containing both sedative and non-sedative antihistamines and sleep aids” (Collegium Pharmaceutical, Inc., priority 2001, dated 2009).

Details: drug or active metabolite

Elimination half-life | Compound
20 to 30 h | COc1ccc(CCN2CCC(Nc3nc4ccccc4n3Cc3ccc(F)cc3)CC2)cc1 [Astemizole]
8 to 13 h | CN(c1nccc(=O)[nH]1)C1CCN(c2nc3ccccc3n2Cc2ccc(F)cc2)CC1 [Mizolazine]

Further lines, the compound ahead of its results:

Compound | Elimination half-life
Clc1ccc2c(c1)CCc1cccnc1C2=C1CCNCC1 [Descarboethoxyloratidine] | 17.3 to 24 h
Oc1ccc(CCN2CCC(Nc3nc4ccccc4n3Cc3ccc(F)cc3)CC2)cc1 [Desmethylastemizole] | 290 h
CC(C)(C)c1ccc(C(=O)CCCN2CCC(OC(c3ccccc3)c3ccccc3)CC2)cc1 [Ebastine] | 13 to 16 h
